Experimental data reported in ChEMBL document CHEMBL3091345, “Strepsesquitriol, a rearranged zizaane-type sesquiterpenoid from the deep-sea-derived actinomycete Streptomyces sp. SCSIO 10355” (2013).

Tested on: RAW264.7
Experiment: Antiinflammatory activity in mouse RAW264.7 cells assessed as inhibition of LPS-induced TNFalpha production at 100 uM treated 4 hrs before LPS challenge measured after overnight incubation by ELISA
Format: functional

Row | SMILES | inhibition at 100 µM
1 | C[C@H]1C[C@@H](O)[C@]23C[C@H](CC[C@]12O)C(C)(C)[C@]3(C)O | 35.4%
2 | Cc1ccc(S(=O)(=O)N[C@@H](Cc2ccccc2)C(=O)CCl)cc1 [TPCK] | 60.6%
